How the values were obtained:
COX-2 [1] = target: T1, COX-2 (Homo sapiens, UniProt P35354); assay: cell-based; conditions: Table IV; CHO[hCOX-2] cells, 10 μM AA
T1 sequence (P35354 18-604): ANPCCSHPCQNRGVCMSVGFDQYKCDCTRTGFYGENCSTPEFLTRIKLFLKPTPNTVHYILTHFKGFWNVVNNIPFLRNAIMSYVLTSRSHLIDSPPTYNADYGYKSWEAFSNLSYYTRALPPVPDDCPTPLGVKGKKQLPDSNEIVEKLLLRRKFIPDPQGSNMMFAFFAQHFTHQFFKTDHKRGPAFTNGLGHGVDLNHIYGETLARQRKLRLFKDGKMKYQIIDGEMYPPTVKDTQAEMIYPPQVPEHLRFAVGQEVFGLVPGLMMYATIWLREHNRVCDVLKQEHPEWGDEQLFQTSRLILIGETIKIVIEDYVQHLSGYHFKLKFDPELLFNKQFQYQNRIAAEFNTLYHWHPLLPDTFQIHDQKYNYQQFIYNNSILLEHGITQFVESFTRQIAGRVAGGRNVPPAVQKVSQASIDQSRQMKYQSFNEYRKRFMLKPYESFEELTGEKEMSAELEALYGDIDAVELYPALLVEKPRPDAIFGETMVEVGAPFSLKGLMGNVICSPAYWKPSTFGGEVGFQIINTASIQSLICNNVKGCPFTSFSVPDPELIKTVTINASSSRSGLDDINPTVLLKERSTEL
Protocol: Chinese hamster ovary (CHO) cell lines which have been stably transfected with an eukaryotic expression vector pCDNAIII containing either the human COX-1 or COX-2 cDNA's are used for the assay. These cell lines are referred to as CHO [hCOX-1] and CHO [hCOX-2], respectively. […] Cells (0.3×10^6 cells in 200 μl) are preincubated with 3 μl of the test drug or DMSO vehicle for 15 min at 37° C. […] Cells are then challenged in the presence or absence of drug with the AA/HBSS solution to yield a final concentration of 0.5 μM AA in the CHO[hCOX-1] assay and a final concentration of 10 μM AA in the CHO[hCOX-2] assay. […] The samples are centrifuged at 300×g at 4° C. for 10 min, and an aliquot of the clarified supernatant is appropriately diluted for the determination of PGE2 levels using an enzyme-linked immunoassay for PGE2 (Correlate PGE2 enzyme immunoassay kit, Assay Designs, Inc.). Cyclooxygenase activity in the absence of test compounds is determined as the difference in PGE2 levels of cells challenged with arachidonic acid versus the PGE2 levels in cells mock-challenged with ethanol vehicle. Inhibition of PGE2 synthesis by test compounds is calculated as a percentage of the activity in the presence of drug versus the activity in the positive control samples.

COX-2 [2] = target: T1, COX-2; assay: biochemical; conditions: Table IV; purified human COX-2; read-out: COX-2 (IC50, μM) TMPD
Protocol: Assay of the activity of purified human COX-2
The assay mixture (180 μL) contains 100 mM sodium phosphate, pH 6.5, 2 mM genapol X-100, 1 μM hematin, 1 mg/ml gelatin, 80-100 units of purified enzyme (One unit of enzyme is defined as the amount of enzyme required to produce an O.D. change of 0.001/min at 610 nm) and 4 μL of the test compound in DMSO. The mixture is pre-incubated at room temperature (22° C.) for 15 minutes prior to initiation of the enzymatic reaction by the addition of 20 μL of a sonicated solution of 1 mM arachidonic acid (AA) and 1 mM TMPD in assay buffer (without enzyme or hematin). The enzymatic activity is measured by estimation of the initial velocity of TMPD oxidation over the first 36 sec of the reaction. […] IC50 values are derived from 4-parameter least squares non-linear regression analysis of the log-dose vs % inhibition plot.

COX-2 [3] = target: T1, COX-2; assay: cell-based; conditions: Table IV; human whole blood, LPS-induced PGE2; read-out: COX-2 (IC50, μM) HWB
Text: (§1) As well, platelets in whole blood contain a large amount of the COX-1 enzyme. Immediately following blood clotting, platelets are activated through a thrombin-mediated mechanism. […] Therefore, the degree of selectivity by the test compound can be determined by measuring the levels of PGE2 after LPS induction (COX-2) and TxB2 following blood clotting (COX-1) in the same assay.
A. COX-2 (LPS-induced PGF, production)
Fresh blood is collected in heparinized tubes by venipuncture from both male and female volunteers. The subjects have no apparent inflammatory conditions and have not taken any NSAIDs for at least 7 days prior to blood collection. Plasma is immediately obtained from a 2 mL blood aliquot to use as blank (basal levels of PGE2).

Rat Paw Edema = assay: Rat paw edema assay (carrageenan); format: in vivo, Male Sprague-Dawley rats; conditions: 3 h, Table IV, po
Protocol: Male Sprague-Dawley rats (150-200 g) are fasted overnight and are given, po, either vehicle (1% methocel or 5% Tween 80) or a test compound. One hr later, a line is drawn using a permanent marker at the level above the ankle in one hind paw to define the area of the paw to be monitored. The paw volume (V0) is measured using a plethysmometer (Ugo-Basile, Italy) based on the principle of water displacement. […] The animals are sacrificed by CO2 asphyxiation and the absence or presence of stomach lesions scored. Data is compared with the vehicle-control values and percent inhibition calculated. All treatment groups are coded to eliminate observer bias.

COX-1 [4] = target: T2, COX-1 (Homo sapiens, UniProt P23219); assay: biochemical; format: biochemical; conditions: Table III; U937
T2 sequence (P23219 24-599): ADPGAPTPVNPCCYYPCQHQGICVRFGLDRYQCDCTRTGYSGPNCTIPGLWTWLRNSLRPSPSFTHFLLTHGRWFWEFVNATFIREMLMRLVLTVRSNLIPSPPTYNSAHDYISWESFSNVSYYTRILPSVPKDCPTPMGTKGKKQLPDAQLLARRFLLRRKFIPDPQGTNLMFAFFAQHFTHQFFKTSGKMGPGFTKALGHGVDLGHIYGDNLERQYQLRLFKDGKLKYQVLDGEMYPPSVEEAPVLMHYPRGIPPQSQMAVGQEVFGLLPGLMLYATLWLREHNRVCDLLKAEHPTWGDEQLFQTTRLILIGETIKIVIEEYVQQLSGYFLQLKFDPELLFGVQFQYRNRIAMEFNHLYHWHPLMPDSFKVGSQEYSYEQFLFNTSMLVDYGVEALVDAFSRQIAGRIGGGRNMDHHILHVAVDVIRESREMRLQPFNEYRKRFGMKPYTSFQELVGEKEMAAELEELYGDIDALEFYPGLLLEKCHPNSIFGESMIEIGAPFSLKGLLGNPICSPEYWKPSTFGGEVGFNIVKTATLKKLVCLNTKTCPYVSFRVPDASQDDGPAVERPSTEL
Protocol: Compounds are tested as inhibitors of cyclooxygenase activity in whole cell cyclooxygenase assays. Both of these assays measure prostaglandin E2 synthesis in response to arachidonic acid, using a radioimmunoassay. Cells used for these assays are human osteosarcoma 143 cells (which specifically express COX-2) and human U-937 cells (which specifically express COX-1). In these assays, 100% activity is defined as the difference between prostaglandin E2 synthesis in the absence and presence of arachidonate.
U 937 cells are pelleted by centrifugation at 500×g for 5 min and washed once with phosphate-buffered saline and repelleted. Cells are resuspended in homogenization buffer consisting of 0.1 M Tris-HCl, pH 7.4, 10 mM EDTA, 2 μg/ml leupeptin, 2 μg/ml soybean trypsin inhibitor, 2 μg/ml aprotinin and 1 mM phenyl methyl sulfonyl fluoride. The cell suspension is sonicated 4 times for 10 sec and is centrifuged at 10,000×g for 10 min at 4° C. The supernatant is centrifuged at 100,000×g for 1 hr at 4 ° C. The 100,000×g microsomal pellet is resuspended in 0.1 M Tris-HCl, pH 7.4, 10 mM EDTA to approximately 7 mg protein/ml and stored at -80° C.
Microsomal preparations are thawed immediately prior to use, subjected to a brief sonication, and then diluted to a protein concentration of 125 μg/ml in 0.1 M Tris-HCl buffer, pH 7.4 containing 10 mM EDTA, 0.5 mM phenol, 1 mM reduced glutathione and 1 μM hematin. Assays are performed in duplicate in a final volume of 250 μl. Initially, 5 μd of DMSO vehicle or drug in DMSO are added to 20 μl of 0.1 M Tris-HCl buffer, pH 7.4 containing 10 mM EDTA in wells of a 96-deepwell polypropylene titre plate. 200 μl of the microsomal preparation are then added and pre-incubated for 15 min at room temperature before addition of 25 μl of […] in 0.1 M Tris-HCl and 10 mM EDTA, pH 7.4. […] Cyclooxygenase activity is defined as the difference between PGE2 levels in samples incubated in the presence of arachidonic acid and ethanol vehicle.

COX-1 [5] = target: T2, COX-1; assay: Human whole blood assay, COX-1 (clotting-induced TxB2 production); format: cell-based; conditions: Table III, read-out: COX-1 (IC50) HWB
Text: as §1
B. COX-1 (Clotting-induced TxB2 production)
Fresh blood is collected into vacutainers containing no anticoagulants. Aliquots of 500 μL are immediately transferred to siliconized microcentrifuge tubes preloaded with 2 μL of either DMSO or a test compound at final concentrations varying from 10 nM to 30 μM. The tubes are vortexed and incubated at 37° C. for 1 hour to allow blood to clot. At the end of incubation, serum is obtained by centrifugation (12,000×g for 5 min.). A 100 μL aliquot of serum is mixed with 400 μL of methanol for protein precipitation.

SMILES | IC50 (COX-2 [1]) [µM] | IC50 (COX-2 [2]) [µM] | IC50 (COX-2 [3]) [µM] | IC50 (COX-1 [4]) [nM] | IC50 (COX-1 [5]) [µM] | ED50 (Rat Paw Edema) [mg/kg]
C[C@]1(CC(F)(F)F)OC(=O)C(Oc2ccc(F)cc2)=C1c1ccc(S(C)(=O)=O)cc1 [Example 166, (5R)-3-(4-fluorophenoxy)-5-methyl-4-(4-methylsulfonyl)phenyl-5-(2,2,2-trifluoroethyl)-5H-furan-2-one] |  |  |  |  |  | 4.9
COC1(C)OC(=O)C(Oc2ccc(F)c(F)c2)=C1c1ccc(S(C)(=O)=O)cc1 (centres unmarked) [Example 24c, 3-(3,4-Difluorophenoxy)-5-methoxy-5-methyl-4-(4-(methylsulfonyl)phenyl)-5H-furan-2-one] |  |  |  | > 3000 | 25.3 | 
CC[C@@]1(C)OC(=O)C(Oc2ccc(F)cn2)=C1c1ccc(S(C)(=O)=O)cc1 [Example 162, (5R)-3-(5-Fluoro-2-pyridyloxy)-5-ethyl-5-methyl-4-(4-methylsulfonyl)-phenyl-5H-furan-2-one] | 0.06 | 8 | 0.62 |  |  | 

The next lines start with results.

IC50 (COX-2 [1]) [µM] | IC50 (COX-2 [2]) [µM] | IC50 (COX-2 [3]) [µM] | IC50 (COX-1 [4]) [nM] | IC50 (COX-1 [5]) [µM] | SMILES | ED50 (Rat Paw Edema) [mg/kg]
0.2 | 7.8 | 0.61 |  |  | CC1(C)OC(=O)C(Oc2cncc(Cl)c2)=C1c1ccc(S(C)(=O)=O)cc1 [Example 49, 3-(3-Chloro-5-pyridiloxy)-5,5-dimethyl-4-(4-(methylsulfonyl)phenyl)-5H-furan-2-one] | 
 |  |  | 990 | 9.2 | CC1(C)OC(=O)C(Oc2ccc(F)c(F)c2)=C1c1ccc(S(C)(=O)=O)cc1 [Example 1, 3-(3,4-Difluorophenoxy)-5,5-dimethyl-4-(4-(methylsulfonyl)phenyl)-5H-furan-2-one] | 
